Data from US9034918B2, “Composition including at least one trans-cinnamaldehyde and the use thereof in the treatment of bacterial infections, specifically in the treatment of nosocomial infections” (SEPTEOS, priority 2009, dated 2015).

Key:
Assay in all cases: Antibiogram by diffusion technique (CA-SFM 2008)
Format in all cases: cell-based
E. coli ATCC 25922 = system: E. coli ATCC 25922; parameters: Diameter (D): unit not given here
From the text: Three clinical categories were selected for interpretation of the in vitro sensitivity tests: sensitive (S), resistant (R) and intermediate (I). • The strains categorized S are those for which the probability of therapeutic success is high in the case of treatment by systemic route with the dosing schedule recommended in the summary of product characteristics (SPC) prepared by the French Health Products Safety Agency ([…]). • The strains categorized R are those for which there is a high probability of therapeutic failure regardless of treatment type and antibiotic dose. • The strains categorized I are those for which therapeutic success cannot be predicted. These strains form a heterogeneous group for which the results obtained in vitro are not predictive of therapeutic success. […] The intermediate category is also a buffer zone which takes into account technical and biological uncertainties. The sensitivity of strains to antibiotics was determined by a diffusion technique according to the 2008 recommendations by the Antibiogram Committee of the French Microbiology Society (CA-SFM). In terms of critical concentrations and diameters, strains are categorized as follows: • sensitive (S): strains for which the MIC of the antibiotic tested is less than or equal to the lower critical concentration c, which is equivalent to a diameter greater than or equal to the critical diameter D; • resistant (R): strains for which the MIC of the antibiotic tested are greater than the upper critical concentration C, corresponding to a diameter less than the critical diameter d; • intermediate sensitivity (I): strains for which the MIC of the antibiotic tested and the corresponding diameter are between the two critical concentrations and the two critical diameters. The tests were carried out on Mueller-Hinton agar. An inoculum adjusted to 0.5 on the McFarland scale is then diluted to 1/100. Petri dishes are inoculated by swabbing. The dishes are read after 24 hours of incubation at 37° C. The raw results are then interpreted according to the interpretative reading rules of the CA-SFM. Two examples: all strains of methicillin-resistant Staphylococcus are resistant to all beta-lactams, and the same is true for gentamicin-resistant strains; golden staph is necessarily resistant to kanamycin (and amikacin) and tobramycin. The quality of the diffusion method is controlled using E. coli strain ATCC 25922.

E. coli strain 8154 = system: E. coli strain 8154; parameters: D: unit not given here
From the text: (§1) Three clinical categories were selected for interpretation of the in vitro sensitivity tests: sensitive (S), resistant (R) and intermediate (I). • The strains categorized S are those for which the probability of therapeutic success is high in the case of treatment by systemic route with the dosing schedule recommended in the summary of product characteristics (SPC) prepared by the French Health Products Safety Agency (AFSSAPS). • The strains categorized R are those for which there is a high probability of therapeutic failure regardless of treatment type and antibiotic dose. • The strains categorized I are those for which therapeutic success cannot be predicted. These strains form a heterogeneous group for which the results obtained in vitro are not predictive of therapeutic success. […] The intermediate category is also a buffer zone which takes into account technical and biological uncertainties.
(§2) The sensitivity of strains to antibiotics was determined by a diffusion technique according to the 2008 recommendations by the Antibiogram Committee of the French Microbiology Society (CA-SFM).
(§3) In terms of critical concentrations and diameters, strains are categorized as follows: • sensitive (S): strains for which the MIC of the antibiotic tested is less than or equal to the lower critical concentration c, which is equivalent to a diameter greater than or equal to the critical diameter D; • resistant (R): strains for which the MIC of the antibiotic tested are greater than the upper critical concentration C, corresponding to a diameter less than the critical diameter d; • intermediate sensitivity (I): strains for which the MIC of the antibiotic tested and the corresponding diameter are between the two critical concentrations and the two critical diameters.
(§4) The tests were carried out on Mueller-Hinton agar. An inoculum adjusted to 0.5 on the McFarland scale is then diluted to 1/100. Petri dishes are inoculated by swabbing. The dishes are read after 24 hours of incubation at 37° C.
(§5) The raw results are then interpreted according to the interpretative reading rules of the CA-SFM.

E. coli strain 8155 = system: E. coli strain 8155; parameters: D: unit not given here
From the text: as §1, §2, §3, §4, §5

E. coli strain 8156 = system: E. coli strain 8156; parameters: D: unit not given here
From the text: as §1, §2, §3, §4, §5

E. coli strain 8157 = system: E. coli strain 8157; parameters: D: unit not given here
From the text: as §1, §2, §3, §4, §5

[1] = system: Pseudomonas aeruginosa strain 8128; parameters: D: unit not given here
From the text: as §1, §2, §3, §4, §5

[2] = system: Pseudomonas aeruginosa strain 8129; parameters: D: unit not given here
From the text: as §1, §2, §3, §4, §5

[3] = system: Pseudomonas aeruginosa strain 8132; parameters: D: unit not given here
From the text: as §1, §2, §3, §4, §5

[4] = system: Pseudomonas aeruginosa strain 8134; parameters: D: unit not given here
From the text: as §1, §2, §3, §4, §5

[5] = system: golden staph (S. aureus) strain 8147; parameters: D: unit not given here
From the text: as §1, §2, §3, §4, §5

[6] = system: golden staph (S. aureus) strain 8239; parameters: D: unit not given here
From the text: as §1, §2, §3, §4, §5

[7] = system: golden staph (S. aureus) strain 8240; parameters: D: unit not given here
From the text: as §1, §2, §3, §4, §5

Enterococcus strain 8152 = system: Enterococcus strain 8152; parameters: Diameter: unit not given here
From the text: as §1, §2, §3, §4, §5

Enterococcus strain 8153 = system: Enterococcus strain 8153; parameters: Diameter: unit not given here
From the text: as §1, §2, §3, §4, §5

E. coli strain 9003 = system: E. coli strain 9003
From the text: as §1, §2, §3, §4, §5

[8] = system: Enterobacter aerogenes (9004); details: strain 9004
From the text: as §1, §2, §3, §4, §5

[9] = system: strain 9007, Pseudomonas aeruginosa, with VIM-2 carbapenemase
From the text: as §1, §2, §3, §4, §5

[10] = system: strain 9010, Acinetobacter baumannii, with VEB-1 ESBL
From the text: as §1, §2, §3, §4, §5

NC[C@H]1O[C@H](O[C@H]2[C@H](O)[C@@H](O[C@H]3O[C@H](CO)[C@@H](O)[C@H](N)[C@H]3O)[C@H](N)C[C@@H]2N)[C@H](N)C[C@@H]1O [Tobramycin]
31: D [6]
24: Diameter (D) (E. coli ATCC 25922) | D (E. coli strain 8154) | D (E. coli strain 8155) | D (E. coli strain 8157)
0: D [3] | D [7]
11: D [4] | Diameter (Enterococcus strain 8152)
27: D [2]
22: D (E. coli strain 8156)
R: Cat. [3] | Cat. [4] | Cat. [7] | Category (Enterococcus strain 8152) | Category (Enterococcus strain 8153) | Category [8] | Category [10]
S: Category (Cat.) (E. coli ATCC 25922) | Cat. (E. coli strain 8154) | Cat. (E. coli strain 8155) | Cat. (E. coli strain 8156) | Cat. (E. coli strain 8157) | Cat. [1] | Cat. [2] | Cat. [5] | Cat. [6] | Category (E. coli strain 9003) | Category [9]
30: D [1] | D [5]
14: Diameter (Enterococcus strain 8153)

CC1(C)S[C@@H]2[C@H](NC(=O)[C@H](N)c3ccc(O)cc3)C(=O)N2[C@H]1C(=O)O [Amoxicillin]
32: Diameter (Enterococcus strain 8152)
S: Category (Cat.) (E. coli ATCC 25922) | Cat. (E. coli strain 8155) | Cat. (E. coli strain 8156) | Category (Enterococcus strain 8152) | Category (Enterococcus strain 8153)
12: D [6]
24: D (E. coli strain 8155)
0: D (E. coli strain 8154) | D (E. coli strain 8157) | D [1] | D [2] | D [3] | D [4]
25: D (E. coli strain 8156)
R: Cat. (E. coli strain 8154) | Cat. (E. coli strain 8157) | Cat. [1] | Cat. [2] | Cat. [3] | Cat. [4] | Cat. [5] | Cat. [6] | Cat. [7] | Category (E. coli strain 9003) | Category [8] | Category [9] | Category [10]
23: Diameter (D) (E. coli ATCC 25922)
26: D [5]
17: D [7]
33: Diameter (Enterococcus strain 8153)

CC(=O)OCC1=C(C(=O)O)N2C(=O)[C@@H](NC(=O)Cc3cccs3)[C@H]2SC1 [Cefalotin]
0: D [1] | D [2] | D [3] | D [4]
R: Cat. [1] | Cat. [2] | Cat. [3] | Cat. [4] | Cat. [5] | Cat. [6] | Cat. [7] | Category (E. coli strain 9003) | Category [8] | Category [9] | Category [10]
21: D (E. coli strain 8154) | D (E. coli strain 8155)
17: D [5] | D [6] | D [7]
S: Category (Cat.) (E. coli ATCC 25922) | Cat. (E. coli strain 8154) | Cat. (E. coli strain 8155) | Cat. (E. coli strain 8156) | Cat. (E. coli strain 8157)
19: D (E. coli strain 8157)
20: Diameter (D) (E. coli ATCC 25922) | D (E. coli strain 8156)

Amoxicillin + clavulanic acid
S: Category (Cat.) (E. coli ATCC 25922) | Cat. (E. coli strain 8154) | Cat. (E. coli strain 8155) | Cat. (E. coli strain 8156) | Cat. (E. coli strain 8157) | Category (Enterococcus strain 8152) | Category (Enterococcus strain 8153) | Category (E. coli strain 9003)
14: D (E. coli strain 8154)
30: D (E. coli strain 8157) | Diameter (Enterococcus strain 8152)
22: Diameter (D) (E. coli ATCC 25922) | D (E. coli strain 8156)
32: Diameter (Enterococcus strain 8153)
R: Cat. [1] | Cat. [2] | Cat. [3] | Cat. [4] | Cat. [5] | Cat. [6] | Cat. [7] | Category [8] | Category [9] | Category [10]
25: D [5] | D [7]
27: D [6]
0: D [1] | D [2] | D [3] | D [4]
24: D (E. coli strain 8155)

CC(C)(O/N=C(\C(=O)N[C@@H]1C(=O)N2C(C(=O)[O-])=C(C[n+]3ccccc3)CS[C@H]12)c1csc(N)n1)C(=O)O [Ceftazidime]
S: Category (Cat.) (E. coli ATCC 25922) | Cat. (E. coli strain 8154) | Cat. (E. coli strain 8155) | Cat. (E. coli strain 8156) | Cat. (E. coli strain 8157) | Cat. [1] | Cat. [3] | Cat. [4] | Category [9]
0: D [2]
33: D (E. coli strain 8156)
25: Diameter (D) (E. coli ATCC 25922) | D [1] | D [4]
26: D [3]
R: Cat. [2] | Category (E. coli strain 9003) | Category [8] | Category [10]
30: D (E. coli strain 8154) | D (E. coli strain 8155) | D (E. coli strain 8157)
